Where a SMILES comes first, the peptide text is derived from it. Bridges are numbered along the chain shown (N, C = ends). Where no end group is shown, it is not given here. [ ]: non-standard residue; d: D form. The star is where a group is joined. NMeR = CN[C@@H](CCCNC(=N)N)C(=O)O; X1 = CC(C)CCOc1ccc(CCN*)cc1; Orn = NCCC[C@H](N)C(=O)O; Bz = O=C(c1ccccc1)*
tested on: NRASQ61K-mutant SBcl2 melanoma cells; experiment: Western blotting of MEK/ERK signalling in melanoma cells treated with peptide and PLX4032; type: cell-based, human; settings: FIG. 2A, cells electroporated with peptide, 1 μM PLX4032 1 hour or DMSO

Row | Molecule | downstream signaling of MEK and ERK (pMEK, pERK)
1 | CC[C@H](C)[C@H](NC(=O)[C@H](CC(N)=O)NC(=O)[C@@H](NC(=O)[C@H](Cc1cnc[nH]1)NC(=O)[C@H](CCCNC(=N)N)NC(=O)[C@@H](NC(=O)[C@H](CCCCN)NC(=O)[C@H](CCCNC(=N)N)NC(=O)[C@H](CC(C)C)NC(=O)[C@@H](NC(=O)CN)C(C)C)[C@@H](C)O)C(C)C)C(=O)N[C@@H](CC(C)C)C(=O)N[C@@H](CC(C)C)C(=O)N[C@@H](Cc1ccccc1)C(=O)N[C@@H](CCSC)C(=O)NCC(=O)N[C@@H](Cc1ccc(O)cc1)C(=O)N[C@@H](CO)C(=O)N[C@H](C(=O)O)[C@@H](C)O [SEQ ID NO: 1] | reduce downstream signaling of MEK and ERK

tested on: not listed separately; experiment: Parallel artificial membrane permeability assay (PAMPA); type: in vitro ADME; settings: phospholipid and dodecane artificial membrane, mass spectroscopy
Description: A parallel artificial membrane permeability assay (PAMPA) was carried out using phospholipid and dodecane as the artificial membrane.

Row | Molecule | passive permeability
2 | CC[C@H](C)[C@H](NC(=O)[C@H](CC(N)=O)NC(=O)[C@@H](NC(=O)[C@H](Cc1cnc[nH]1)NC(=O)[C@H](CCCNC(=N)N)NC(=O)[C@@H](NC(=O)[C@H](CCCCN)NC(=O)[C@H](CCCNC(=N)N)NC(=O)[C@H](CC(C)C)NC(=O)[C@@H](NC(=O)CN)C(C)C)[C@@H](C)O)C(C)C)C(=O)N[C@@H](CC(C)C)C(=O)N[C@@H](CC(C)C)C(=O)N[C@@H](Cc1ccccc1)C(=O)N[C@@H](CCSC)C(=O)NCC(=O)N[C@@H](Cc1ccc(O)cc1)C(=O)N[C@@H](CO)C(=O)N[C@H](C(=O)O)[C@@H](C)O [SEQ ID NO: 1] | no detectable trace of passive permeability
3 | CSCC[C@H](NC(=O)[C@H](Cc1ccccc1)NC(=O)[C@H](CC(C)C)NC(=O)[C@H](CC(C)C)NC(=O)[C@@H]1CCC(=O)NCCCC[C@H](NC(=O)[C@H](CCCCN)NC(=O)[C@H](CCCNC(=N)N)NC(=O)[C@@H](N)CC(C)C)C(=O)N[C@@H](CCCNC(=N)N)C(=O)N[C@@H](Cc2c[nH]cn2)C(=O)N[C@@H](C(C)C)C(=O)N[C@@H](C)C(=O)N1)C(=O)NCC(N)=O [compound 38] | no detectable trace of passive permeability
4 | CC(C)[C@@H]1NC(=O)[C@H](Cc2c[nH]cn2)NC(=O)[C@H](CCCNC(=N)N)NC(=O)[C@@H](N)CCCCNC(=O)CC[C@@H](C(N)=O)NC(=O)[C@H](C)NC1=O [compound 48] (H-KRHVAE-NH2; lactam 1-6) | no detectable trace of passive permeability
5 | CC(C)CCOc1ccc(CCNC(=O)[C@@H]2CCC(=O)NCCCC[C@H](NC(=O)c3ccccc3)C(=O)N(C)[C@@H](CCCNC(=N)N)C(=O)N[C@H](C)C(=O)N3CCC[C@H]3C(=O)N[C@@H](C)C(=O)N2)cc1 [compound 64] (Bz-K[NMeR][dA]PAE-X1; lactam 1-6) | no detectable trace of passive permeability

molecular target: T1, B-Raf (Homo sapiens, UniProt P15056); experiment: Isothermal Titration Calorimetry (ITC) of B-Raf binding of peptides; settings: change in enthalpy
T1 sequence (P15056 whole entry): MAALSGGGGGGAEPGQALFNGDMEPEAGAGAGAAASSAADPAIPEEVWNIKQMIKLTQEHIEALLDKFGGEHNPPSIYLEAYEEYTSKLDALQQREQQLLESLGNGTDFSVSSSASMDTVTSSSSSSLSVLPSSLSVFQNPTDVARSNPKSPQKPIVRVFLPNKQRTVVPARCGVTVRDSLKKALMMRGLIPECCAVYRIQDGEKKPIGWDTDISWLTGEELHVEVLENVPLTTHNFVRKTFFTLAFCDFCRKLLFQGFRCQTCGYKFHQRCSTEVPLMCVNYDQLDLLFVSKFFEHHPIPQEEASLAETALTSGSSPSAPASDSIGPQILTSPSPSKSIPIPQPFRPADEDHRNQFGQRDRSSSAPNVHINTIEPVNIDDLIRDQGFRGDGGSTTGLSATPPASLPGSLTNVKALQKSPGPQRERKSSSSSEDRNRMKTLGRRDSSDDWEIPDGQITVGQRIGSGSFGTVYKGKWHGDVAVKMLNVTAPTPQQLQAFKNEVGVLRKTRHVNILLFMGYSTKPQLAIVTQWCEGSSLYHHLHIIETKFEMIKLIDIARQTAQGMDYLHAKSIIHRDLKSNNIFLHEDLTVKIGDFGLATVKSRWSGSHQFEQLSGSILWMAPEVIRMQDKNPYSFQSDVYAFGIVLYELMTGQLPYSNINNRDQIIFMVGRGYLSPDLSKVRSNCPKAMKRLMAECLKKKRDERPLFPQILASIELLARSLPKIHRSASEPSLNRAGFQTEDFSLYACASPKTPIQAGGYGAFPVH
Description: Isothermal Titration Calorimetry (ITC) of B-Raf Binding of Peptides
An isothermal titration calorimeter composed of two identical cells surrounded by an adiabatic jacket was used to perform ITC measurements. The thermopile/thermocouple circuits were used to detect temperature differences between a reference cell (filled with buffer or water) and a sample cell containing the macromolecule. During an experiment, ligand is titrated into the sample cell in precisely known aliquots, causing heat to be either taken up or evolved (depending on the nature of the reaction). Measurements consist of the time-dependent input of power required to maintain equal temperatures between the sample and reference cells. In an exothermic reaction, the temperature in the sample cell increases upon addition of ligand. This causes the feedback power to the sample cell to be decreased (remember: a reference power is applied to the reference cell) in order to maintain an equal temperature between the two cells. In an endothermic reaction, the opposite occurs; the feedback circuit increases the power in order to maintain a constant temperature (isothermic/isothermal operation). […] The pattern of these heat effects as a function of the molar ratio [ligand]/[macromolecule] can then be analyzed to give the thermodynamic parameters of the interaction under study.

Row | Molecule | ΔH
6 | CC[C@H](C)[C@H](NC(=O)[C@H](CC(N)=O)NC(=O)[C@@H](NC(=O)[C@H](Cc1c[nH]cn1)NC(=O)[C@H](CCCNC(=N)N)NC(=O)[C@H](C)NC(=O)[C@H](CCCCN)NC(=O)[C@H](CCCNC(=N)N)NC(=O)[C@H](CC(C)C)NC(=O)[C@@H](NC(=O)CN)C(C)C)C(C)C)C(=O)N[C@@H](CC(C)C)C(=O)N[C@@H](CC(C)C)C(=O)N[C@@H](Cc1ccccc1)C(=O)N[C@@H](CCSC)C(=O)NCC(=O)N[C@@H](Cc1ccc(O)cc1)C(=O)N[C@@H](CO)C(=O)N[C@H](C(=O)O)[C@@H](C)O [SEQ ID NO: 8] | -8.32 kcal/mol

same assay, conditions: change in entropy, text b156

Row | Molecule | ΔS
7 | CC[C@H](C)[C@H](NC(=O)[C@H](CC(N)=O)NC(=O)[C@@H](NC(=O)[C@H](Cc1c[nH]cn1)NC(=O)[C@H](CCCNC(=N)N)NC(=O)[C@H](C)NC(=O)[C@H](CCCCN)NC(=O)[C@H](CCCNC(=N)N)NC(=O)[C@H](CC(C)C)NC(=O)[C@@H](NC(=O)CN)C(C)C)C(C)C)C(=O)N[C@@H](CC(C)C)C(=O)N[C@@H](CC(C)C)C(=O)N[C@@H](Cc1ccccc1)C(=O)N[C@@H](CCSC)C(=O)NCC(=O)N[C@@H](Cc1ccc(O)cc1)C(=O)N[C@@H](CO)C(=O)N[C@H](C(=O)O)[C@@H](C)O [SEQ ID NO: 8] | −28.4 J/mol·K

molecular target: dimer forming interface (Homo sapiens, UniProt P15056); experiment: Kd (μM); settings: not given
Sequence (P15056 2-766 limits assumed): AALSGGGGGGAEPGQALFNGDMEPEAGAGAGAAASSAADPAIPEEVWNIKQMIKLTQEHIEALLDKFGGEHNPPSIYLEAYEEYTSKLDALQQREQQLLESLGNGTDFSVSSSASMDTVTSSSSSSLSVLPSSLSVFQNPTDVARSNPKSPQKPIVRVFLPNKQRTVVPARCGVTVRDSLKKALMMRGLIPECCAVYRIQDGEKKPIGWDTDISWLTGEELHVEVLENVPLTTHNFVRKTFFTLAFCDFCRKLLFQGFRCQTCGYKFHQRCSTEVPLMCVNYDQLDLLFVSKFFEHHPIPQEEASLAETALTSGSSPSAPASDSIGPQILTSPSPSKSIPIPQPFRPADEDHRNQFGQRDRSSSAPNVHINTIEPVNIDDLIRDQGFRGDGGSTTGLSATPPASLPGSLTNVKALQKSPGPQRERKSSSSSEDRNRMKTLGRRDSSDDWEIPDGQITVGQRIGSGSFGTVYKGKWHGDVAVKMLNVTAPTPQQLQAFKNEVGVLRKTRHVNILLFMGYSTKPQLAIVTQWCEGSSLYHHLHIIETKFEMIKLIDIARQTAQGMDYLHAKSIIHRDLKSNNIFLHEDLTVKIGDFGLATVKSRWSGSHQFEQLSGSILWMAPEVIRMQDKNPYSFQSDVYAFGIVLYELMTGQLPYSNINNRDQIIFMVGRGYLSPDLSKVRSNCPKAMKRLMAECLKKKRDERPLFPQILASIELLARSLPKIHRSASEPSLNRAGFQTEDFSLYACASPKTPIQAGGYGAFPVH

Row | Molecule | Kd
8 | CC[C@H](C)[C@H](NC(=O)[C@H](CC(N)=O)NC(=O)[C@@H](NC(=O)[C@H](Cc1c[nH]cn1)NC(=O)[C@H](CCCNC(=N)N)NC(=O)[C@@H](NC(=O)[C@H](CCCCN)NC(=O)[C@H](CCCNC(=N)N)NC(=O)[C@H](CC(C)C)NC(=O)[C@@H](NC(C)=O)C(C)C)[C@@H](C)O)C(C)C)C(=O)N[C@@H](CC(C)C)C(=O)N[C@@H](CC(C)C)C(=O)N[C@@H](Cc1ccccc1)C(=O)N[C@@H](CCSC)C(=O)NCC(=O)O [compound 19] | 800 ± 83 nM
9 | LLKTRHVNILLFMG [compound 32] | 550 ± 105 nM
10 | LRKTRHVNILLFMG [SEQ ID NO: 31] | 190 ± 130 nM
11 | VARKTRHVNILLFMG [compound 21] | 450 ± 30 nM
12 | VLAKTRHVNILLFMG [SEQ ID NO: 22] | 360 ± 30 nM
13 | VLRKTAHVNILLFMG [compound 24] | 2400 ± 350 nM
14 | VLRKTRAVNILLFMG [compound 25] | 2700 ± 400 nM
15 | VLRKTRHVNALLFMG [compound 27] | 2690 ± 350 nM
16 | VLRKTRHVNIALFMG [compound 28] | 1020 ± 140 nM
17 | VLRKTRHVNILLAMG [compound 29] | 570 ± 80 nM
18 | VLRKTRHVNILLFAG [compound 30] | 540 ± 150 nM

tested on: SBcl2 melanoma cell; experiment: Melanoma cell growth / colony formation; type: cell-based, human; settings: SBcl2 melanoma cells

Row | Molecule | concentration that impaired cell growth
19 | GVLAATAAVNALLFAGYST [SEQ ID NO: 68] | 7.2 µM

same assay, conditions: control vs FAM-TAT-SEQ ID NO: 17

Row | Molecule | growth-impairing concentration relative to the test sequence
20 | GVLAATAAVNALLFAGYST [SEQ ID NO: 68] | 4 fold

molecular target: T1, B-Raf; experiment: Dissociation constant (Kd) determination from intrinsic Trp fluorescence (ITF); type: binding; settings: not given

Row | Molecule | Kd
21 | CSCC[C@H](NC(=O)[C@H](Cc1ccccc1)NC(=O)[C@H](CC(C)C)NC(=O)[C@H](CC(C)C)NC(=O)[C@@H]1CCC(=O)NCCCC[C@H](N)C(=O)N[C@@H](CCCNC(=N)N)C(=O)N[C@@H](Cc2c[nH]cn2)C(=O)N[C@@H](C(C)C)C(=O)N[C@@H](C)C(=O)N1)C(=O)NCC(N)=O [compound 47] (H-KRHVAELLFMG-NH2; lactam 1-6) | 590 ± 20 nM
22 | CC(C)[C@@H]1NC(=O)[C@H](Cc2c[nH]cn2)NC(=O)[C@H](CCCNC(=N)N)NC(=O)[C@@H](N)CCCCNC(=O)CC[C@@H](C(N)=O)NC(=O)[C@H](C)NC1=O [compound 48] (H-KRHVAE-NH2; lactam 1-6) | 300 ± 30 nM
23 | CSCC[C@H](NC(=O)[C@H](Cc1ccccc1)NC(=O)[C@H](CC(C)C)NC(=O)[C@H](CC(C)C)NC(=O)[C@@H]1CCC(=O)NCCCC[C@H](NC(=O)[C@H](CCCCN)NC(=O)[C@H](CCCNC(=N)N)NC(=O)[C@H](CC(C)C)NC(=O)[C@@H](N)C(C)C)C(=O)N[C@@H](CCCNC(=N)N)C(=O)N[C@@H](Cc2c[nH]cn2)C(=O)N[C@@H](C(C)C)C(=O)N[C@@H](CC(N)=O)C(=O)N1)C(=O)NCC(N)=O [compound 53] | 1890 ± 330 nM
24 | CSCC[C@H](NC(=O)[C@H](Cc1ccccc1)NC(=O)[C@H](CCC(C)C)NC(=O)[C@H](CC(C)C)NC(=O)[C@@H]1CCC(=O)NCCC[C@H](NC(=O)[C@H](CCCCN)NC(=O)[C@H](CCCNC(=N)N)NC(=O)[C@H](CC(C)C)NC(=O)[C@@H](N)C(C)C)C(=O)N[C@@H](CCCNC(=N)N)C(=O)N[C@@H](Cc2c[nH]cn2)C(=O)N[C@@H](C(C)C)C(=O)N[C@@H](C)C(=O)N1)C(=O)NCC(N)=O [compound 57] | 430 ± 30 nM
25 | CC[C@H](C)[C@H](NC(=O)[C@H](CC(C)C)NC(=O)[C@@H]1CCC(=O)NCCC[C@H](NC(=O)[C@H](CCCCN)NC(=O)[C@H](CCCNC(=N)N)NC(=O)[C@H](CC(C)C)NC(=O)[C@@H](N)C(C)C)C(=O)N[C@@H](CCCNC(=N)N)C(=O)N[C@@H](Cc2c[nH]cn2)C(=O)N[C@@H](C(C)C)C(=O)N[C@@H](C)C(=O)N1)C(=O)N[C@@H](Cc1ccccc1)C(=O)N[C@@H](CCSC)C(=O)NCC(N)=O [compound 58] (H-VLRK[Orn]RHVAELIFMG-NH2; lactam 5-10; N-terminus assumed) | 170 ± 60 nM
26 | CSCC[C@H](NC(=O)[C@H](Cc1ccccc1)NC(=O)[C@H](CC(C)C)NC(=O)[C@H](CC(C)C)NC(=O)[C@@H]1CCC(=O)NCCCC[C@H](NC(=O)[C@H](CCCCN)NC(=O)[C@H](CCCNC(=N)N)NC(=O)[C@H](CC(C)C)NC(=O)[C@@H](N)C(C)C)C(=O)N[C@@H](CCCNC(=N)N)C(=O)N[C@@H](Cc2c[nH]cn2)C(=O)N[C@@H](C(C)C)C(=O)N[C@@H](C)C(=O)N1)C(=O)NCC(N)=O [compound 59] | 61 ± 10 nM
27 | CSCC[C@H](NC(=O)[C@H](Cc1ccccc1)NC(=O)[C@H](CC(C)C)NC(=O)[C@H](CC(C)C)NC(=O)[C@@H]1CCC(=O)NCCCC[C@H](NC(=O)[C@H](CCCCN)NC(=O)[C@H](CCCNC(=N)N)NC(=O)[C@H](CC(C)C)NC(=O)[C@@H](N)C(C)C)C(=O)N(C)[C@@H](CCCNC(=N)N)C(=O)N[C@@H](Cc2c[nH]cn2)C(=O)N[C@@H](C(C)C)C(=O)N[C@@H](C)C(=O)N1)C(=O)NCC(N)=O [compound 60] | 39 ± 20 nM
28 | CSCC[C@H](NC(=O)[C@H](Cc1ccccc1)NC(=O)[C@H](CC(C)C)NC(=O)[C@H](CC(C)C)NC(=O)[C@@H]1CCC(=O)NCCCC[C@H](N)C(=O)N[C@@H](CCCNC(=N)N)C(=O)N[C@@H](Cc2c[nH]cn2)C(=O)N2CCC[C@H]2C(=O)N[C@@H](C)C(=O)N1)C(=O)NCC(N)=O [compound 61] (H-KRHPAELLFMG-NH2; lactam 1-6) | 160 ± 20 nM

same assay, conditions: FIG. 1, unit not given

Row | Molecule | Kd, binding affinity to the dimer forming interface of B-Raf
29 | GVLRKTHHVNILGFWGYST [SEQ ID NO: 2] | no measurable binding
30 | GVLRKTRFVNILLFMGYST [SEQ ID NO: 9] | no measurable binding
31 | GVLRKTRHVNILLDMGYST [SEQ ID NO:14] | no measurable binding

same assay, conditions: Table 2, binding affinity with BRAF, cyclized vs linear peptides; read-out: Kd

Row | Molecule | Kd
32 | VLRKTRHVNILLFM [compound 16] | 5750 ± 1200 nM
